Test results reported in PMC2730741 (Bioorganic & medicinal chemistry, 2009).
“Also recorded” adds a separate entry of the source.

How the values were obtained:
in vitro = conditions: microsomes
[1] = system: Bacillus anthracis Sterne spores; parameters: species or system A/J mice; conditions: mouse, in vivo
[2] = microsomes
lethal factor (LF) = lethal factor (LF) (Bacillus anthracis, UniProt P15917); experiment: biochemical; format: biochemical
[3] = system: LF cleavage of MEK1 in HeLa cells; format: cell-based, Human
[4] = system: RAW 264.7 macrophages, LF/PA induced cell death; experiment: cells; format: cell-based, Murine; conditions: Mus musculus, RAW264.7, 4 h, read-out: EC50 (macrophage assay)

Chain of lethal factor (LF) (P15917 34-809 limits assumed): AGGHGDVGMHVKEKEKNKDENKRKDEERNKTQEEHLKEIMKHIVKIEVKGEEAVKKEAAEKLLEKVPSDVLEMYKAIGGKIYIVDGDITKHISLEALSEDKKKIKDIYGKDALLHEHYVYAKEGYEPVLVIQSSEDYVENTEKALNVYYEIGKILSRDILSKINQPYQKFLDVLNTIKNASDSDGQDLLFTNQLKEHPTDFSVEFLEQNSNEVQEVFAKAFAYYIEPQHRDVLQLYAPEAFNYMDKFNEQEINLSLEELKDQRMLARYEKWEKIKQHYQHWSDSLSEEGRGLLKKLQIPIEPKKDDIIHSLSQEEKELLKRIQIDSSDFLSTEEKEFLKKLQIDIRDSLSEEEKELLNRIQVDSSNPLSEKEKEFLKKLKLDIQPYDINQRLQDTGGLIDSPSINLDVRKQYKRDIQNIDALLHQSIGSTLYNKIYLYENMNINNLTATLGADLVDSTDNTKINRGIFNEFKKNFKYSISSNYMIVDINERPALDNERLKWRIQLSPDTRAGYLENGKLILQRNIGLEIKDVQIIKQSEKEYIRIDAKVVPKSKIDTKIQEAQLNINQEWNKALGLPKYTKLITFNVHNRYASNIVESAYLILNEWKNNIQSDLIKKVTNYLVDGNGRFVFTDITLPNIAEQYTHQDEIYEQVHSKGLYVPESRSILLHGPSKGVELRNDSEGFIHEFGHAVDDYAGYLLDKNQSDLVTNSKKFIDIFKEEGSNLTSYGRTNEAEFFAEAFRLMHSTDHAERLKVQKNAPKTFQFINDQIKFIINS

Row | SMILES | half-life (in vitro) | Pampa | IC50 (lethal factor (LF)) | also measured
1 | Cc1ccc(S(=O)(=O)Nc2sccc2-c2nc3ccccc3s2)cc1Cl [Compound 55, N-(3-(benzo[d]thiazol-2-yl)thiophen-2-yl)-3-chloro-4-methylbenzenesulfonamide] | > 2 h | High | – | survival of infected mice versus DMSO control [1]: slight improvement in comparison to the control
2 | Cc1csc(NS(=O)(=O)c2ccc([N+](=O)[O-])cc2)c1-c1nc2ccccc2s1 [Compound 17, N-(3-(benzo[d]thiazol-2-yl)-4-methylthiophen-2-yl)-4-nitrobenzenesulfonamide] | > 2 h | High | – | Metabolic stability Hept. CLint [2]: t1/2= >120min CLint= 0.6
3 | O=S(=O)(Nc1sccc1-c1nc2ccccc2s1)c1cc(OCC(F)(F)F)ccc1OCC(F)(F)F [Compound 56, N-(3-(benzo[d]thiazol-2-yl)thiopen-2-yl)-2,5-bis(2,2,2-trifluoroethoxy)benzenesulfonamide] | – | – | 39 µM | –
4 | Nc1sccc1-c1nc2ccccc2s1 [Compound 42, reference compound] | – | – | – | inhibitory activity against LF (in words) (lethal factor (LF)): essentially inactive
5 | O=S(=O)(Nc1sc2c(c1-c1nc3ccccc3s1)CCCC2)c1ccc(-c2ccc(Cl)cc2)cc1 [Compound 106] | – | – | > 50 µM | –
6 | O=S(=O)(Nc1sccc1-c1nc2ccccc2s1)c1ccc(-c2ccc(Cl)cc2)cc1 [Compound 71] | > 2 h | Low | – | –
7 | Cc1cc(S(=O)(=O)N[C@H](C(=O)NO)C2CCOCC2)ccc1F [Compound 7] | – | – | – | protection of HeLa cells against LF cleavage of MEK1 [3]: effective
8 | CSc1nccc(-c2ccc(S(=O)(=O)Nc3sccc3-c3nc4ccccc4s3)s2)n1 [Compound 99, N-(3-(benzo[d]thiazol-2-yl)thiophen-2-yl)-5-(2-(methylthio)pyrimidin-4-yl)thiophene-2-sulfonamide] | – | – | 18 µM | –
9 | O=S(=O)(Nc1sccc1-c1nc2ccccc2s1)c1ccc2ncsc2c1 [Compound 92, N-(3-(benzo[d]thiazol-2-yl)thiophen-2-yl)benzo[d]thiazole-6-sulfonamide] | > 2 h | High | – | Metabolic stability Hept. CLint [2]: t1/2= >120min CLint= 3.9
10 | CNC(=O)[C@H](Cc1c[nH]c2ccccc12)NC(=O)[C@@H](CC(=O)NO)CC(C)C [Inhibitor 1, Ilomastat] | – | – | – | protection of HeLa cells against LF cleavage of MEK1 [3]: effective
11 | COc1ccc(-c2ccc(S(=O)(=O)Nc3sccc3-c3nc4ccccc4s3)cc2)cc1 [Compound 70] | > 2 h | Low | – | protection of HeLa cells against LF cleavage of MEK1 [3]: effective; EC50 [4]: 0.561 µM; Metabolic stability Hept. CLint [2]: t1/2= >120min CLint= 3.6; survival of infected mice versus DMSO control [1]: a little more effective in protecting the mice; also recorded: best survival
12 | COc1ccc(-c2ccc(S(=O)(=O)Nc3sc4c(c3-c3nc5ccccc5s3)CCCC4)cc2)cc1 [Compound 105] | – | – | > 50 µM | –
